{"source": "paper PMC7092364", "about": "(European journal of medicinal chemistry, 2017)", "key": {"NC(11–55) peptide": {"molecular_target": "NC(11–55) peptide (Human immunodeficiency virus type 1 group M subtype B, UniProt P04591, I389N)", "experiment": "Nucleic acid destabilization assay", "type": "biochemical, HIV-1 MAL strain", "conditions": "200 μM of compound"}, "[1]": {"molecular_target": "full-length recombinant NC (1–55) (Human immunodeficiency virus type 1 group M subtype B, UniProt P12493)", "experiment": "Non-denaturing ESI-MS binding and binding competition with NC", "parameters": "species or system HIV-1 LAI strain", "conditions": "for complex formation with NC (ESI-MS): 5 μM NC, ten-fold compound concentration"}, "MT-2 cells": {"system": "MT-2 cells", "type": "cell-based", "conditions": "human, 72 h"}}, "note": "Marks after values point to notes of the source that are not given here.", "data": [{"compound": "O=c1[nH]c2cc(S(=O)(=O)Nc3ccc4[nH]ncc4c3)ccc2o1", "note": "[5–06, N-(1H-indazol-5-yl)-2-oxo-2,3-dihydro-1,3-benzoxazole-5-sulfonamide]", "values": [{"measurement": "inhibition of the NC-induced cTAR55 destabilization", "setting": "NC(11–55) peptide", "result": "by half"}, {"measurement": "complex formation with NC (ESI-MS)", "setting": "[1]", "result": "stable 1:1 complexes"}, {"measurement": "affinity of 5–06 for NC relative to compound 5", "setting": "[1]; from fractional occupancies", "result": "two to three-fold higher affinity"}, {"measurement": "TD50", "setting": "MT-2 cells", "result": "140^# (75.0–378.0) μM"}]}, {"compound": "Cc1ccc(NS(=O)(=O)c2ccc3oc(=O)[nH]c3c2)c(C)c1", "note": "[compound 5, N-(2,4-dimethylphenyl)-2-oxo-2,3-dihydro-1,3-benzoxazole-5-sulfonamide]", "values": [{"measurement": "complex formation with NC (ESI-MS)", "setting": "[1]", "result": "stable 1:1 complexes"}]}]}
